From patent publication US9713598B2, “Treatment of insulin resistance associated with prolonged physical inactivity” (ABBOTT LABORATORIES, priority 2013, dated 2017) come the findings set out here.

“And” between values parts separate entries of the source, which are not always exact repeats. Identical values can stand only once.

What all share (format): in vivo
In one experiment the test system is Leptin. The experiment in a line: 10-day bed rest study in healthy elderly subjects: circulating Leptin (RBM Human Discovery map, serum). An excerpt: (§1) The following inclusion criteria were verified at screening: male or female ≧60 to ≦79 years of age; body mass index (BMI) ≧20 but ≦35; ambulatory with a Short Performance Physical Battery (SPPB) score of ≧9 (fully functional with no mobility limitations); compliance with prescribed activity level. Exclusion criteria ruled out subjects who had undergone recent major surgery, had active malignancy (exception basal or squamous cell skin carcinoma or carcinoma in situ of the uterine cervix); history of Deep Vein Thrombosis (DVT) or other hypercoagulation disorders; refractory anemia; history of diabetes or fasting blood glucose value >126 mg/dL; presence of partial or full artificial limb; kidney disease or serum creatinine >1.4 mg/dL; evidence of cardiovascular disease assessed during resting or exercise EKG; untreated hypothyroidism; liver disease; chronic or acute GI disease; uncontrolled severe diarrhea, nausea or vomiting; were actively pursuing weight loss; were enrolled in other clinical trials; could not refrain from smoking over the bed rest study period or could not discontinue anticoagulant therapy over bed rest period. Potential subjects were also excluded if they were taking any medications known to affect protein metabolism (e.g., progestational agents, steroids, growth hormone, dronabinol, marijuana, HMB, free amino acid supplements, dietary supplements to aid weight loss).
(§2) The 24 healthy subjects initially involved in the study were randomized into two groups. Subjects in the treatment group received two β-hydroxy-β-methylbutyrate (HMB) sachets containing 1.5 grams Ca-HMB (TSI, Salt Lake City, Utah), 4 grams maltodextrin and 200 mg Calcium with additional sweetener and flavoring groups. Subjects in the control group received two control sachets that were identical to the HMB sachets with the exclusion Ca-HMB. This study was a double-blinded study. Neither the investigators nor the subjects were informed of the identity of any of the study products during the clinical portion of the study. Subjects were instructed to consume twice daily by mixing each sachet into a non-caloric, non-caffeinated, non-carbonated, non-milk-based beverage of their choice. Treatment with HMB or Control was initiated 5 days prior to bed rest and was continued until the end of the rehabilitation period.
For diet stabilization over the pre-bed rest and bed rest period, subjects were fed a metabolically controlled diet providing the RDA for protein intake (0.8 g protein/kg body weight per day). […]
After a diet stabilization of 5 days (ambulatory period), subjects remained in bed continuously for 10 days. […] Subjects were constantly monitored by nursing staff and received a daily physical examination by the study physician. […]

For experiment [1], the system named is Insulin-like Growth Factor-Binding Protein 2 (IGFBP-2). The experiment in a line: 10-day bed rest study in healthy elderly subjects: circulating IGFBP-2 (RBM Human Discovery map, serum).
From the text: as §1, §2
(§3) For diet stabilization over the pre-bed rest and bed rest period, subjects were fed a metabolically controlled diet providing the RDA for protein intake (0.8 g protein/kg body weight per day). Total calorie needs were estimated using the Harris-Benedict equation for resting energy expenditure according to the following equation: For women=[655+(9.56×body weight in kg)+(1.85×height in cm)−(4.68×age in years)]×AF, or, For men=[66+(13.7×body weight in kg)+(5×height in cm)−([…]]×AF, where AF=activity factor of 1.6 for the ambulatory and 1.35 for the bed rest periods. Given the total calorie and protein intakes, the remainder of the diet was manipulated to keep the non-protein calories at about 60% from carbohydrates and 40% from fat. Water was provided ad libitum.
(§4) After a diet stabilization of 5 days (ambulatory period), subjects remained in bed continuously for 10 days. While confined to bed rest, subjects were allowed to use the bedside commode for urination or were taken in a wheelchair for toileting. […] Subjects were constantly monitored by nursing staff and received a daily physical examination by the study physician. […]

A further experiment concerns C-peptide. The experiment in a line: 10-day bed rest study in healthy elderly subjects: circulating C-peptide (RBM Human Discovery map, serum).
From the text: as §1, §2, §3, §4

Setting [2] is: HMB Treatment (n = 10), end of 10 days of bed rest.
[3] abbreviates: HMB Treatment (n = 10), two sachets of 1.5 g Ca-HMB daily, started 5 days prior to bed rest, fasted blood, Day 1 of bed rest.

With `CC(C)(O)CC(=O)O` [HMB, β-hydroxy-β-methylbutyric acid], the “Leptin, Post-bed rest Mean” value with Leptin (setting [2]) came to 19.31 ng/mL. In addition, the “Leptin, Change” value in the experiment with Leptin (HMB Treatment (n = 10), pre- to post-bed rest, 10 days, control change 5.06 ± 1.88) was 4.11 ng/mL and 4.11 ± 1.89 ng/mL. For the same compound, the “Leptin, Pre-bed rest Mean” value in the experiment with Leptin (setting [3]) came to 15.20 ng/mL. Further, the “effect on bed-rest change in blood levels of Leptin versus untreated control subjects” value in the experiment on Leptin (prolonged bed rest, 10 days) is reported as “reduces or attenuates the increase in blood levels of Leptin”. Moreover, the “percent change in blood levels of IGFBP-2” value in experiment [1] (10 HMB treated subjects, after 10 days of bed rest, control −24.56%) is reported as −15.63%. The “IGFBP-2, Post-bed rest Mean” value in experiment [1] (setting [2]) worked out at 106.97 ng/mL. For the same compound, the “IGFBP-2, Change” value in experiment [1] (HMB Treatment (n = 10), pre- to post-bed rest, 10 days, control change −30.54 ± 13.64) was -20.89 ng/mL and -20.89 ± 6.84 ng/mL. Moreover, the “IGFBP-2, Pre-bed rest Mean” value in experiment [1] (setting [3]) was determined as 127.86 ng/mL. Moreover, in experiment [1] (prolonged bed rest, 10 days), the “effect on bed-rest change in blood levels of IGFBP-2 versus control subjects” value is on record as “reduces or attenuates the decrease in blood levels of IGFBP-2”. Besides, in the experiment with C-peptide (10 HMB treated subjects, after 10 days of bed rest, control 43.0%), the “percent increase in blood levels of C-peptide” value is 29.59%. In the experiment with C-peptide (setting [2]), the “C-peptide, Post-bed rest Mean” value was 1.69 ng/mL. Moreover, the “C-peptide, Change” value in the experiment with C-peptide (HMB Treatment (n = 10), pre- to post-bed rest, 10 days, control change 0.54 ± 0.22) was 0.28 ng/mL and 0.28 ± 0.08 ng/mL. Also, the “C-peptide, Pre-bed rest Mean” value in the experiment with C-peptide (setting [3]) came to 1.41 ng/mL. Further, the “effect on bed-rest change in blood levels of C-peptide versus untreated control subjects” value with C-peptide (prolonged bed rest, 10 days) is given as “reduces or attenuates the increase in blood levels of C-peptide”.
